Experimental data: patent publication US20120108557A1, “FLUOROQUINOLONE DERIVATIVES FOR OPHTHALMIC APPLICATIONS” (ALCON RESEARCH, LTD., priority 2008, published 2012)

How the values were obtained:
Experiment in all cases: In vitro antimicrobial activity, agar dilution MIC
Type in all cases: cell-based
[1] = test system: Escherichia coli
Method: (§1) The activity of the compounds of the present invention was evaluated using an in vitro assay. Microorganisms were prepared from growth on agar media, in broth culture, or from thawed cryopreserved cultures. Fungal cultures were filtered to remove mycelial elements.
(§2) Using Mueller Hinton II Broth, 0.9% saline or other appropriate media, a suspension of each culture was prepared and adjusted to a turbidity equivalent to that of a 0.5 McFarland Standard. (Cultures adjusted to the 0.5 McFarland Standard generally contain approximately 1.0×10^8 CFU/mL). The adjusted suspension for each culture was diluted 1:10 in the appropriate media so that the inoculum concentration approximates 1.0×10^7 CFU/mL.
(§3) The antimicrobial agent to be tested was weighed and diluted with a volume of sterile distilled water calculated to yield the necessary starting concentration. Serial 1:2 dilutions of the antimicrobial agent in sterile distilled water were prepared (approximately 10-12 test concentrations comprise a reasonable experimental range). A known amount of each antimicrobial dilution was combined with an aliquot of agar medium calculated to yield the desired final antimicrobial test concentration and dispensed onto plates.
(§4) The amount of antimicrobial agent to be weighed was determined using the following equation: […]
(§5) Antimicrobial stock solutions were prepared at concentrations 5-10 times the highest concentration to be tested (routinely 1024 μg/mL). […] The stock solution was diluted to appropriate concentration using sterile water to form a working solution. The working solution was diluted two-fold, in sterile water, until the desired concentration is obtained.
(§6) Mueller Hinton II agar was prepared as described by the manufacturer. Mueller Hinton II agar may be supplemented with 5% defibrinated sheep blood for testing streptococci. Agar was added to the serially diluted antimicrobial solution in each container. The solutions were mixed thoroughly and poured into petri dishes (about 25 mL/plate). The pH of the agar at 25° C. should be between 7.2 and 7.4.
(§7) At least one inocula control plate was inoculated (agar medium without antimicrobial agent) from each seed plate before inoculating test plates. Test plates were inoculated starting at the lowest concentration and proceeding to the highest concentration. After all test plates were inoculated, an additional control plate (agar medium without antimicrobial agent) was inoculated. The plates were incubated in a non-CO2 incubator (or CO2 incubator depending on growth requirements); 18-24 hours at 32-35° C. was sufficient for most organisms.
(§8) All inoculation points on the agar surface were examined for the presence of growth as compared to the inoculum control plates. The results were summarized and use to determine Minimal Inhibitory Concentrations (MICs): The MIC is the lowest concentration of the antimicrobial agent which prevents visible growth of the organism (negative score).

[2] = test system: Morganella morganii
Method: as §1, §2, §3, §4, §5, §6, §7, §8

[3] = test system: Staphylococcus haemolyticus
Method: as §1, §2, §3, §4, §5, §6, §7, §8

[4] = test system: Stenotrophomonas maltophilia
Method: as §1, §2, §3, §4, §5, §6, §7, §8

[5] = test system: Acinetobacter junii
Method: as §1, §2, §3, §4, §5, §6, §7, §8

[6] = test system: Staphylococcus epidermidis
Method: as §1, §2, §3, §4, §5, §6, §7, §8

[7] = test system: Serratia marcescens
Method: as §1, §2, §3, §4, §5, §6, §7, §8

[8] = test system: Acinetobacter baumannii; conditions: test organism 26, Acinetobacter baumannii
Method: as §1, §2, §3, §4, §5, §6, §7, §8

[9] = test system: Pseudomonas aeruginosa
Method: as §1, §2, §3, §4, §5, §6, §7, §8

[10] = test system: MRSE
Method: as §1, §2, §3, §4, §5, §6, §7, §8

[11] = test system: Enterococcus faecalis
Method: as §1, §2, §3, §4, §5, §6, §7, §8

[12] = test system: MSSA; conditions: test organism 6, MSSA
Method: as §1, §2, §3, §4, §5, §6, §7, §8

[13] = test system: Streptococcus pneumoniae
Method: as §1, §2, §3, §4, §5, §6, §7, §8

[14] = test system: MRSA
Method: as §1, §2, §3, §4, §5, §6, §7, §8

[15] = test system: Enterobacter hormaechei
Method: as §1, §2, §3, §4, §5, §6, §7, §8

[16] = test system: Corynebacterium amycolatum
Method: as §1, §2, §3, §4, §5, §6, §7, §8

[17] = test system: Streptococcus mitis
Method: as §1, §2, §3, §4, §5, §6, §7, §8

[18] = test system: Staphylococcus aureus
Method: as §1, §2, §3, §4, §5, §6, §7, §8

[19] = test organism 32, Escherichia coli
[20] = test organism 33, Escherichia coli
[21] = test organism 34, Escherichia coli
[22] = test organism 35, Morganella morganii
[23] = test organism 36, Morganella morganii
[24] = test organism 12, Staphylococcus haemolyticus
[25] = test organism 13, Staphylococcus haemolyticus
[26] = test organism 14, Staphylococcus haemolyticus
[27] = test organism 41, Stenotrophomonas maltophilia
[28] = test organism 42, Stenotrophomonas maltophilia
[29] = test organism 27, Acinetobacter junii
[30] = test organism 28, Acinetobacter junii
[31] = test organism 29, Acinetobacter junii
[32] = test organism 7, Staphylococcus epidermidis
[33] = test organism 8, Staphylococcus epidermidis
[34] = test organism 39, Serratia marcescens
[35] = test organism 40, Serratia marcescens
[36] = test organism 37, Pseudomonas aeruginosa
[37] = test organism 38, Pseudomonas aeruginosa
[38] = test organism 15, Enterococcus faecalis
[39] = test organism 16, Enterococcus faecalis
[40] = test organism 17, Enterococcus faecalis
[41] = test organism 18, Enterococcus faecalis
[42] = test organism 19, Streptococcus pneumoniae
[43] = test organism 20, Streptococcus pneumoniae
[44] = test organism 31, Enterobacter hormaechei
[45] = test organism 24, Corynebacterium amycolatum
[46] = test organism 25, Corynebacterium amycolatum
[47] = test organism 21, Streptococcus mitis
[48] = test organism 22, Streptococcus mitis
[49] = test organism 23, Streptococcus mitis
[50] = test organism 1, Staphylococcus aureus
[51] = test organism 2, Staphylococcus aureus

Nc1c(F)c(N2CC3CCCNC3C2)c(F)c2c1c(=O)c(C(=O)O)cn2C1CC1 [Compound 3 (S,S)]
Minimal Inhibitory Concentration (MIC) [1, 19]: 0.06
Minimal Inhibitory Concentration (MIC) [1, 20]: ≦0.25
Minimal Inhibitory Concentration (MIC) [1, 21]: >4
Minimal Inhibitory Concentration (MIC) [2, 22]: 0.125
Minimal Inhibitory Concentration (MIC) [2, 23]: 1
Minimal Inhibitory Concentration (MIC) [3, 24]: 0.125
Minimal Inhibitory Concentration (MIC) [3, 25]: 1
Minimal Inhibitory Concentration (MIC) [3, 26]: >4
Minimal Inhibitory Concentration (MIC) [4, 27]: 2
Minimal Inhibitory Concentration (MIC) [4, 28]: 0.125
Minimal Inhibitory Concentration (MIC) [5, 29]: ≦0.25
Minimal Inhibitory Concentration (MIC) [5, 30]: 0.06
Minimal Inhibitory Concentration (MIC) [5, 31]: >4
Minimal Inhibitory Concentration (MIC) [6, 32]: 0.5
Minimal Inhibitory Concentration (MIC) [6, 33]: 0.5
Minimal Inhibitory Concentration (MIC) [7, 34]: 0.5
Minimal Inhibitory Concentration (MIC) [7, 35]: 1
Minimal Inhibitory Concentration (MIC) [8]: ≦0.25
Minimal Inhibitory Concentration (MIC) [9, 36]: >4
Minimal Inhibitory Concentration (MIC) [9, 37]: 0.5
Minimal Inhibitory Concentration (MIC) ([10]; test organism 9, MRSE): >2
Minimal Inhibitory Concentration (MIC) ([10]; test organism 10, MRSE): >2
Minimal Inhibitory Concentration (MIC) ([10]; test organism 11, MRSE): >4
Minimal Inhibitory Concentration (MIC) [11, 38]: 0.125
Minimal Inhibitory Concentration (MIC) [11, 39]: 0.5
Minimal Inhibitory Concentration (MIC) [11, 40]: >4
Minimal Inhibitory Concentration (MIC) [11, 41]: >2
Minimal Inhibitory Concentration (MIC) [12]: 4
Minimal Inhibitory Concentration (MIC) [13, 42]: 0.125
Minimal Inhibitory Concentration (MIC) [13, 43]: ≦0.25
Minimal Inhibitory Concentration (MIC) ([14]; test organism 3, MRSA): 1
Minimal Inhibitory Concentration (MIC) ([14]; test organism 4, MRSA): 2
Minimal Inhibitory Concentration (MIC) ([14]; test organism 5, MRSA): >2
Minimal Inhibitory Concentration (MIC) [15, 44]: 4
Minimal Inhibitory Concentration (MIC) [16, 45]: 0.5
Minimal Inhibitory Concentration (MIC) [16, 46]: >4
Minimal Inhibitory Concentration (MIC) [17, 47]: ≦0.25
Minimal Inhibitory Concentration (MIC) [17, 48]: 0.125
Minimal Inhibitory Concentration (MIC) [17, 49]: 1
Minimal Inhibitory Concentration (MIC) [18, 50]: ≦0.03
Minimal Inhibitory Concentration (MIC) [18, 51]: ≦0.25

CN1CCCC2CN(c3c(F)cc4c(=O)c(C(=O)O)cn(C5CC5)c4c3F)CC21 (stereo not shown) [Compound 1]
Minimal Inhibitory Concentration (MIC) [1, 19]: 0.06
Minimal Inhibitory Concentration (MIC) [1, 20]: ≦0.25
Minimal Inhibitory Concentration (MIC) [1, 21]: >4
Minimal Inhibitory Concentration (MIC) [2, 22]: 0.5
Minimal Inhibitory Concentration (MIC) [2, 23]: 2
Minimal Inhibitory Concentration (MIC) [3, 24]: 0.25
Minimal Inhibitory Concentration (MIC) [3, 25]: 2
Minimal Inhibitory Concentration (MIC) [3, 26]: >4
Minimal Inhibitory Concentration (MIC) [4, 27]: >4
Minimal Inhibitory Concentration (MIC) [4, 28]: 0.25
Minimal Inhibitory Concentration (MIC) [5, 29]: ≦0.25
Minimal Inhibitory Concentration (MIC) [5, 30]: ≦0.03
Minimal Inhibitory Concentration (MIC) [5, 31]: 2
Minimal Inhibitory Concentration (MIC) [6, 32]: 0.25
Minimal Inhibitory Concentration (MIC) [6, 33]: >2
Minimal Inhibitory Concentration (MIC) [7, 34]: 1
Minimal Inhibitory Concentration (MIC) [7, 35]: 1
Minimal Inhibitory Concentration (MIC) [8]: 0.5
Minimal Inhibitory Concentration (MIC) [9, 36]: >4
Minimal Inhibitory Concentration (MIC) [9, 37]: 2
Minimal Inhibitory Concentration (MIC) ([10]; test organism 9, MRSE): >2
Minimal Inhibitory Concentration (MIC) ([10]; test organism 10, MRSE): >2
Minimal Inhibitory Concentration (MIC) ([10]; test organism 11, MRSE): >4
Minimal Inhibitory Concentration (MIC) [11, 38]: 0.5
Minimal Inhibitory Concentration (MIC) [11, 39]: >2
Minimal Inhibitory Concentration (MIC) [11, 40]: >4
Minimal Inhibitory Concentration (MIC) [11, 41]: >2
Minimal Inhibitory Concentration (MIC) [12]: >4
Minimal Inhibitory Concentration (MIC) [13, 42]: 0.125
Minimal Inhibitory Concentration (MIC) [13, 43]: 0.5
Minimal Inhibitory Concentration (MIC) ([14]; test organism 3, MRSA): >2
Minimal Inhibitory Concentration (MIC) ([14]; test organism 4, MRSA): 4
Minimal Inhibitory Concentration (MIC) ([14]; test organism 5, MRSA): >2
Minimal Inhibitory Concentration (MIC) [15, 44]: 4
Minimal Inhibitory Concentration (MIC) [16, 45]: 0.06
Minimal Inhibitory Concentration (MIC) [16, 46]: >4
Minimal Inhibitory Concentration (MIC) [17, 47]: 0.5
Minimal Inhibitory Concentration (MIC) [17, 48]: 0.25
Minimal Inhibitory Concentration (MIC) [17, 49]: 2
Minimal Inhibitory Concentration (MIC) [18, 50]: 0.06
Minimal Inhibitory Concentration (MIC) [18, 51]: ≦0.25

Nc1c(F)c(N2CC3CCCNC3C2)c(F)c2c1c(=O)c(C(=O)O)cn2C1CC1 (racemic) [Compound 3 (racemic)]
Minimal Inhibitory Concentration (MIC) [1, 19]: 0.06
Minimal Inhibitory Concentration (MIC) [1, 20]: ≦0.25
Minimal Inhibitory Concentration (MIC) [1, 21]: >4
Minimal Inhibitory Concentration (MIC) [2, 22]: 0.5
Minimal Inhibitory Concentration (MIC) [2, 23]: 1
Minimal Inhibitory Concentration (MIC) [3, 24]: 0.125
Minimal Inhibitory Concentration (MIC) [3, 25]: 1
Minimal Inhibitory Concentration (MIC) [3, 26]: >4
Minimal Inhibitory Concentration (MIC) [4, 27]: 4
Minimal Inhibitory Concentration (MIC) [4, 28]: ≦0.03
Minimal Inhibitory Concentration (MIC) [5, 29]: ≦0.25
Minimal Inhibitory Concentration (MIC) [5, 30]: 0.125
Minimal Inhibitory Concentration (MIC) [5, 31]: >4
Minimal Inhibitory Concentration (MIC) [6, 32]: 0.06
Minimal Inhibitory Concentration (MIC) [6, 33]: >2
Minimal Inhibitory Concentration (MIC) [7, 34]: 0.5
Minimal Inhibitory Concentration (MIC) [7, 35]: 1
Minimal Inhibitory Concentration (MIC) [8]: 0.5
Minimal Inhibitory Concentration (MIC) [9, 36]: >4
Minimal Inhibitory Concentration (MIC) [9, 37]: 2
Minimal Inhibitory Concentration (MIC) ([10]; test organism 9, MRSE): >2
Minimal Inhibitory Concentration (MIC) ([10]; test organism 10, MRSE): >2
Minimal Inhibitory Concentration (MIC) ([10]; test organism 11, MRSE): >4
Minimal Inhibitory Concentration (MIC) [11, 38]: 0.125
Minimal Inhibitory Concentration (MIC) [11, 39]: 1
Minimal Inhibitory Concentration (MIC) [11, 40]: >4
Minimal Inhibitory Concentration (MIC) [11, 41]: >2
Minimal Inhibitory Concentration (MIC) [12]: >4
Minimal Inhibitory Concentration (MIC) [13, 42]: ≦0.03
Minimal Inhibitory Concentration (MIC) [13, 43]: 0.5
Minimal Inhibitory Concentration (MIC) ([14]; test organism 3, MRSA): >2
Minimal Inhibitory Concentration (MIC) ([14]; test organism 4, MRSA): 2
Minimal Inhibitory Concentration (MIC) ([14]; test organism 5, MRSA): >2
Minimal Inhibitory Concentration (MIC) ([15]; test organism 30, Enterobacter hormaechei): 0.5
Minimal Inhibitory Concentration (MIC) [15, 44]: 4
Minimal Inhibitory Concentration (MIC) [16, 45]: 0.06
Minimal Inhibitory Concentration (MIC) [16, 46]: >4
Minimal Inhibitory Concentration (MIC) [17, 47]: 0.5
Minimal Inhibitory Concentration (MIC) [17, 48]: 0.06
Minimal Inhibitory Concentration (MIC) [17, 49]: 1
Minimal Inhibitory Concentration (MIC) [18, 50]: ≦0.03
Minimal Inhibitory Concentration (MIC) [18, 51]: 0.5
